Molecules are shown by their SMILES. Where a name gives a salt, the structure may show the parent alone.

Usually IC50 stands for the concentration that inhibits the measured activity by half. Read a low IC50 as higher potency.

T1 sequence (P08709 213-466 limits assumed): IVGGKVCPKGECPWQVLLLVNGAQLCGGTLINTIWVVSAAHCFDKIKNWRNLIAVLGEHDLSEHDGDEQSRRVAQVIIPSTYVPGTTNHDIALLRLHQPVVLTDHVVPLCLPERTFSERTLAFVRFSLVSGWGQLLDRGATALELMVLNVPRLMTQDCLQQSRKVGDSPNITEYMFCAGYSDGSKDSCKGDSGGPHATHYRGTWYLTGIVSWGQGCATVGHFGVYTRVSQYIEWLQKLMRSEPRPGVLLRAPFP
T1 sequence (P08709 61-212 limits assumed): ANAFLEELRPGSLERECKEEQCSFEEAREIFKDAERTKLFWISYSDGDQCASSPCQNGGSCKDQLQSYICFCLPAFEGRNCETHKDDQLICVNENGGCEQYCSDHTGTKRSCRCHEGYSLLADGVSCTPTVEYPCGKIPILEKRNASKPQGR
T1 sequence (P13726 33-295 partner): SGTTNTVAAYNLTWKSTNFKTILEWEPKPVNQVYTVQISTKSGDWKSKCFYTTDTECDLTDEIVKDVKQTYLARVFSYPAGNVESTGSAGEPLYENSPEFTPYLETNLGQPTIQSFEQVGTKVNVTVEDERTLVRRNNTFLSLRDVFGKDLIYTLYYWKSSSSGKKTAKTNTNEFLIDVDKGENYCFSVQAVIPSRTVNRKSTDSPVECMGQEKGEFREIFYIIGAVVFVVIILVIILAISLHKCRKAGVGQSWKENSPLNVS

The assay concerns the target T1, human clotting factor VIIa (Homo sapiens, UniProt P08709).
T1 construct: a human clotting factor VIIa (hereinafter, “Factor VIIa”) purified sample; purchased Enzyme Research Laboratories HFVIIa
The assay is described as follows: Inhibitory activity against clotting factor VIIa (chromogenic substrate Spectrozyme FVIIa, TF/Factor VIIa enzyme solution). Format: biochemical. The note with it: human Factor VIIa 5 nmol/L with human TF 10 nmol/L, room temperature 40 minutes, 405 nm. The method, then:
[Inhibitory Activity Against Clotting Factor VIIa]
Dimethylsulfoxide (DMSO) solutions were prepared with compounds of the invention at concentration of 10 mmol/L (10 mmol/L compound solutions).
One packet of tris-hydroxymethylaminomethane-preset (hereinafter referred to as “Tris preset”) (Product of Sigma Corp., Catalog No. T8293), 8.8 g of sodium chloride (NaCl) and 1 g of bovine serum albumin (hereinafter abbreviated as “BSA”) were dissolved in 1 L of water to prepare a Tris-BSA buffer (100 mmol/L Tris, 0.15 mol/L NaCl, 0.1% BSA, pH 7.4).
This Tris-BSA buffer (180 μL) was added to the aforementioned 10 mmol/L compound solution (20 μL). A 10-fold dilution series was prepared for this mixture using the aforementioned Tris-BSA buffer, and solutions with the compound at concentrations of 1.0 mmol/L, 100, 10, 1, 0.1, 0.01 and 0.001 μmol/L were prepared (1.0 mmol-0.001 μmol/L compound solutions). As a control, a solution was prepared by 10-fold dilution of DMSO with the Tris-BSA buffer (hereinafter referred to as “control 10% solution”).
After dissolving one packet of Tris preset, NaCl (8.8 g) and BSA (1 g) in water (about 900 mL), there were added 1 mol/L aqueous calcium chloride (CaCl2) (15 mL) and 1 mg/mL aqueous cephalin (30 mL), and the total volume was brought to 1 L by adding water. To this solution there was added a human tissue factor (hereinafter, “TF”) sample (product of Calbiochem, Catalog No. 612151) (450 μg) to a TF sample concentration of 10 nmol/L, and then a human clotting factor VIIa (hereinafter, “Factor VIIa”) purified sample (product of Enzyme Research Laboratories, Catalog No. HFVIIa) (250 μg) was added to a Factor VIIa purified sample concentration of 5 nmol/L, to prepare an enzyme solution (100 mmol/L Tris-HCl, 0.15 mol/L NaCl, 15 mmol/L CaCl2, 30 μg/mL cephalin, 1 mg/mL BSA, 10 nmol/L TF, 5 nmol/L Factor VIIa).
To 110 μL of this enzyme solution there was added 15 μL of each of the 1.0 mmol-0.001 μmol/L compound solutions, and then 25 μL of a 1.0 mmol/L synthetic chromogenic substrate solution (Spectrozyme FVIIa, product of American Diagnostica, Catalog No. 217L) was added and the mixture was allowed to stand at room temperature for 40 minutes. Next, the amount of 4-nitroanilide released into the solution was quantitated by spectrophotometry (405 nm).
A control measurement was conducted in the same manner, using the control 10% solution instead of the compound solution.
This measurement yielded the enzyme reaction inhibition in the presence of 100 μmol/L to 0.1 nmol/L of each compound of the invention.
The enzyme reaction inhibition at each compound concentration was subjected to non-linear regression analysis, and the IC50 value for inhibitory activity of each compound against clotting factor VIIa was calculated.
`CCc1cc(OCC(=O)N(C)C)c(F)c(C(Nc2ccc(C(=N)N)cc2)c2nn(-c3ccccc3NC(=O)OC)c(=O)[nH]2)c1` (stereo not shown) [Example 135, (2-{3-[(4-carbamimidoylphenylamino)-(3-dimethylcarbamoylmethoxy-5-ethyl-2-fluorophenyl)methyl]-5-oxo-4,5-dihydro-1H-[1,2,4]triazol-1-yl}phenyl)carbamic acid methyl ester trifluoroacetate] registered an IC50 of 8.6 nM.

As for `COc1cc(C(Nc2ccc(C(=N)N)cc2)c2nn(-c3cccnn3)c(=O)[nH]2)cc2c1OCCCO2` (stereo not shown) [Example 147, 4-{[(9-methoxy-3,4-dihydro-2H-benzo[b][1,4]dioxepin-7-yl)-(5-oxo-1-pyridazin-3-yl-4,5-dihydro-1H-[1,2,4]triazol-3-yl)methyl]amino}benzamidine acetate], the IC50 was found to be 5.1 nM.

`CCc1cc(OCCCO)c(F)c(C(Nc2ccc(C(=N)N)cc2)c2nn(-c3ncccc3N)c(=O)[nH]2)c1` (racemic) [Example 205, (R) and (S)-4-({[1-(3-Aminopyridin-2-yl)-5-oxo-4,5-dihydro-1H-[1,2,4]triazol-3-yl]-[5-ethyl-2-fluoro-3-(3-hydroxypropoxy)phenyl]methyl}amino)benzamidine acetate] registered an IC50 of 2.3 nM. This IC50 lies about 2.2-fold lower than the previous one.

In turn, `COc1cc(F)c(C(Nc2ccc(C(=N)N)cc2)c2nn(-c3cccnn3)c(=O)[nH]2)cc1OC` (racemic) [Example 119, (R) and (S)-4-{[(2-fluoro-4,5-dimethoxyphenyl)-(5-oxo-1-pyridazin-3-yl-4,5-dihydro-1H-[1,2,4]triazol-3-yl)methyl]amino}benzamidine acetate] gave an IC50 of 7 nM.

`COCCOc1cc(OC)cc(C(Nc2ccc(C(=N)N)cc2)c2nn(-c3ncccc3N)c(=O)[nH]2)c1F` (stereo not shown) [Example 202, 4-({[1-(3-Aminopyridin-2-yl)-5-oxo-4,5-dihydro-1H-[1,2,4]triazol-3-yl]-[2-fluoro-5-methoxy-3-(2-methoxyethoxy)phenyl]methyl}amino)benzamidine acetate]: the IC50 was 12 nM. This IC50 is about 1.7-fold higher than that of the compound before.

With `COc1cc(F)c(C(Nc2ccc(C(=N)N)cc2)c2nn(-c3ncccn3)c(=O)[nH]2)cc1OC` (racemic) [Example 111, 4-{[(R) and (S)-(2-fluoro-4,5-dimethoxyphenyl)-(5-oxo-1-pyrimidin-2-yl-4,5-dihydro-1H-[1,2,4]triazol-3-yl)methyl]amino}benzamidine acetate], 11.3 nM corresponded to half-maximal inhibition (IC50).

Turning to `COc1cc(O[C@@H](C)CO)c(F)c(C(Nc2ccc(C(=N)N)cc2)c2nn(-c3ncccn3)c(=O)[nH]2)c1` (mixture of isomers) [Example 217, (R) and (S)-4-{[[2-Fluoro-3-((S)-2-hydroxy-1-methylethoxy)-5-methoxyphenyl]-(5-oxo-1-pyrimidin-2-yl-4,5-dihydro-1H-[1,2,4]triazol-3-yl)methyl]amino}benzamidine acetate], the IC50 is 3.1 nM.

The compound `COCCOc1ccc(C(Nc2ccc(C(=N)N)cc2)c2nn(-c3ccsc3C(=O)O)c(=O)[nH]2)cc1OC` (racemic) [Example 195, 3-(3-{(R) and (S)-(4-Carbamimidoylphenylamino)-[3-methoxy-4-(2-methoxyethoxy)phenyl]methyl}-5-oxo-4,5-dihydro-[1,2,4]triazol-1-yl)thiophene-2-carboxylic acid] showed a concentration for half-maximal inhibition (IC50) of 6.2 nM.

As to `COc1cc(C(Nc2ccc(C(=N)N)cc2)c2nn(-c3ncccn3)c(=O)[nH]2)cc2c1OCCCO2` (racemic) [Example 156, (R) and (S)-4-{[(9-methoxy-3,4-dihydro-2H-benzo[b][1,4]dioxepin-7-yl)-(5-oxo-1-pyrimidin-2-yl-4,5-dihydro-1H-[1,2,4]triazol-3-yl)methyl]amino}benzamidine acetate], the IC50 was 5.2 nM. This IC50 and that of the compound before are within 1.5-fold of each other.

With `COc1cc(OCCF)c(F)c(C(Nc2ccc(C(=N)N)cc2)c2nn(-c3ncccc3N)c(=O)[nH]2)c1` (racemic) [Example 136, (R) and (S)-4-({[1-(3-aminopyridin-2-yl)-5-oxo-4,5-dihydro-1H-[1,2,4]triazol-3-yl]-[2-fluoro-3-(2-fluoroethoxy)-5-methoxyphenyl]methyl}amino)benzamidine acetate], the IC50 came to 5.1 nM.

Values taken from patent US7816522B2, “Triazolone derivatives” (Eisai Co., Ltd., priority 2006, dated 2010).
